US20230393140A1, “BINDING ASSAYS INVOLVING A PLURALITY OF SYNTHETIC COMPOUNDS, TARGETS, AND COUNTER TARGETS” (SRI International, priority 2020, published 2023)
Where two headings read alike, the source gives them in different places. Numbered stars: 1 amine (or outer) side, 2 acyl side, 3 side chain; on linkers, the order of the positions; unused ones are H or OH. Square brackets hold non-standard residues; d marks the D form. Peptide text beside a SMILES is read from it. * marks the point of attachment. 5FAM = O=C1OC2(c3ccc(O)cc3Oc3cc(O)ccc32)c2ccc(C(=O)*)cc21; NHCH2C6H4(4-CH2CONH2) = NC(=O)Cc1ccc(CN*)cc1; X1 = O=C(Cc1ccc(CN[*:1])cc1)[*:2]

Assays:
IL-6R = biological target: T1, IL-6R (Homo sapiens, UniProt P08887); test: MST binding affinity of resynthesized NNP hits to IL-6R
T1 construct: purchased Creative Biomart IL6R-584H
T1 sequence (P08887 20-355 limits assumed): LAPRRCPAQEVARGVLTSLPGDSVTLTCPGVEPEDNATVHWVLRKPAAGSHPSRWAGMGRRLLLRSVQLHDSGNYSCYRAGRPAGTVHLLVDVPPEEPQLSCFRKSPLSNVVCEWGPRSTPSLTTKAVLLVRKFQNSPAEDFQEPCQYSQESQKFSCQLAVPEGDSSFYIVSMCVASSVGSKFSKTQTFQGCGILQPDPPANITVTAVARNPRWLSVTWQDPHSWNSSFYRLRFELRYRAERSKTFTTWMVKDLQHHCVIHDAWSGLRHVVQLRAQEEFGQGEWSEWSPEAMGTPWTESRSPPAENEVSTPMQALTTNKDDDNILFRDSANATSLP
Method: Hit binding affinity to various targets were determined using Microscale Thermophoresis (MST). MST experiments were performed on a Monolith NT.115pico (NanoTemper Technologies GmbH, Munich, Germany). Measurements were performed at room temperature, in triplicate with incubation periods of 15, 30 and 45 minutes. […] Targets were labeled using Nanotemper Monolith 2nd Generation Protein Labeling Kits. RED-MALEIMIDE (Maleimide-647-dye) labeling kit was used for K-Ras and RED-NHS (NHS-647-dye) labeling kit was used for IL-6, IL-6R, TNFα and ASGPR. The buffer for the ASGPR contained 20 mM HEPES pH 7.4, 150 mM NaCl, 10 mM MgCl2, 2 mM CaCl2, 0.05% Pluronic F-127, and 1 mM DTT; for IL-6 contained 20 mM HEPES pH 7.4, 150 mM KCl, 10 mM MgCl2, and 0.1% Pluronic F-127; for the soluble IL-6 receptor 20 mM HEPES pH 7.4, 150 mM NaCl, 10 mM MgCl2, and 0.05% Tween-20; for K-Ras 20 mM HEPES pH 7.4, 150 mM NaCl, 10 mM MgCl2, 0.05% Tween-20 and 1 mM DTT; for TNFα 10 mM HEPES pH 7.4, 150 mM NaCl, 10 mM MgCl2, 0.05% Polysorbate-20. Triplicate data was analyzed using MO.AffinityAnalysis software (NanoTemper Technologies GmbH).

TNFα = TNFα (Homo sapiens, UniProt P01375); test: MST binding affinity of resynthesized NNP hits to TNFα; set-up: purchased R&D Systems, Inc. 210-TA/CF; settings: read-out: KD (nM) [95% conf. int], NNP2 library hit, target TNFα, one-site binding model
How it was run: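 Microscale thermophoresis at room temperature, triplicate, 15, 30 and 45 min incubations; targets labeled with RED-NHS 647 dye. Buffers (all 20 mM HEPES pH 7.4 unless noted): IL-6 150 mM KCl, 10 mM MgCl2, 0.1% Pluronic F-127; IL-6R 150 mM NaCl, 10 mM MgCl2, 0.05% Tween-20; TNFα 10 mM HEPES, 150 mM NaCl, 10 mM MgCl2, 0.05% Polysorbate-20; ASGPR adds 2 mM CaCl2, 0.05% Pluronic F-127, 1 mM DTT.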

TNFα, sequence (P01375 77-233 limits assumed): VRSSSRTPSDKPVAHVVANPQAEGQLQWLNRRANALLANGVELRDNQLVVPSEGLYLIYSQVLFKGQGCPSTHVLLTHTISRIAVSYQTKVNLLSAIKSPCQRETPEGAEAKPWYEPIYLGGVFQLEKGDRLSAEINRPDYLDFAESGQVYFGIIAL

Compound: CC(C)C[C@H](NC(=O)[C@@H](CCCNC(=N)N)NC(=O)[C@@H](C)NC(=O)Cc1ccc(CNC(=O)[C@H](CC(C)C)NC(=O)[C@@H](CCCNC(=N)N)NC(=O)[C@@H](CCC(=O)O)NC(=O)Cc2ccc(CNC(=O)[C@H](Cc3ccccc3)NC(=O)[C@@H](CCCCN)NC(=O)[C@@H](CCC(=O)O)NC(=O)Cc3ccc(CNC(=O)[C@H](CC(C)C)NC(=O)[C@@H](CCC(=O)O)NC(=O)[C@@H](CCCCN)NC(=O)Cc4ccc(CNC(=O)[C@H](CC(C)C)NC(=O)[C@H](NC(=O)[C@@H](CC(N)=O)NC(=O)Cc5ccc(CNC(=O)[C@H](Cc6ccccc6)NC(=O)[C@@H](CO)NC(=O)[C@@H](CCC(=O)O)NC(=O)Cc6ccc(CNC(=O)[C@H](CC(C)C)NC(=O)[C@@H](CC(C)C)NC(=O)[C@@H](Cc7ccc(O)cc7)NC(=O)c7ccc8c(c7)C(=O)OC87c8ccc(O)cc8Oc8cc(O)ccc87)cc6)cc5)[C@H](C)O)cc4)cc3)cc2)cc1)C(=O)NCc1ccc(CC(=O)N[C@H](Cc2c[nH]c3ccccc23)C(=O)N[C@H](CCCCN)C(=O)N[C@@H](CC(C)C)C(=O)NCc2ccc(CC(=O)N[C@H](Cc3ccccc3)C(=O)N[C@H](CCCCN)C(=O)NCC(=O)NCc3ccc(CC(N)=O)cc3)cc2)cc1 [IL6R-87-2] (5FAM-[dY][dL]L[X1][dE][dS]F[X1][dN][dT]L[X1][dK][dE]L[X1][dE][dK]F[X1][dE][dR]L[X1][dA][dR]L[X1][dW][dK]L[X1][dF][dK]G-{NHCH2C6H4(4-CH2CONH2)})
- Kd (IL-6R; read-out: KD (nM) [95% conf. int], MST, NNP2 library hit, target SIL-6R, one-site binding model): 0.8 nM

Compound: CC(C)C[C@H](NC(=O)[C@@H](CCCNC(=N)N)NC(=O)[C@@H](C)NC(=O)Cc1ccc(CNC(=O)[C@H](C)NC(=O)[C@@H](Cc2c[nH]c3ccccc23)NC(=O)[C@@H](CCC(=O)O)NC(=O)Cc2ccc(CNC(=O)[C@H](Cc3ccccc3)NC(=O)[C@@H](CCCCN)NC(=O)[C@@H](CCC(=O)O)NC(=O)Cc3ccc(CNC(=O)[C@H](CC(C)C)NC(=O)[C@@H](CCC(=O)O)NC(=O)[C@@H](CCCCN)NC(=O)Cc4ccc(CNC(=O)[C@H](CC(C)C)NC(=O)[C@H](NC(=O)[C@@H](CC(N)=O)NC(=O)Cc5ccc(CNC(=O)[C@@H](NC(=O)[C@@H](CC(N)=O)NC(=O)[C@H]6CCCN6C(=O)Cc6ccc(CNC(=O)[C@H](Cc7ccccc7)NC(=O)[C@@H](Cc7c[nH]c8ccccc78)NC(=O)[C@@H](CCCNC(=N)N)NC(=O)c7ccc8c(c7)C(=O)OC87c8ccc(O)cc8Oc8cc(O)ccc87)cc6)C(C)C)cc5)[C@H](C)O)cc4)cc3)cc2)cc1)C(=O)NCc1ccc(CC(=O)N[C@H](CCC(=O)O)C(=O)N[C@H](CCCNC(=N)N)C(=O)N[C@H](C(=O)NCc2ccc(CC(=O)N[C@H](Cc3ccccc3)C(=O)N[C@H](CCCCN)C(=O)NCC(=O)NCc3ccc(CC(N)=O)cc3)cc2)C(C)C)cc1 [IL6R-87-1, Fluorescein-(D)Arg-(D)Trp-(L)Phe-PAM-(D)Pro-(D)Asn-(L)Val-PAM-(D)Asn-(D)Thr-(L)Leu-PAM-(D)Lys-(D)Glu-(L)Leu-PAM-(D)Glu-(D)Lys-(L)Phe-PAM-(D)Glu-(D)Trp-(L)Ala-PAM-(D)Ala-(D)Arg- (L)Leu-PAM-(D)Glu-(D)Arg-(L)Val-PAM-(D)Phe-(D)Lys-Gly-PAM] (5FAM-[dR][dW]F[X1][dP][dN]V[X1][dN][dT]L[X1][dK][dE]L[X1][dE][dK]F[X1][dE][dW]A[X1][dA][dR]L[X1][dE][dR]V[X1][dF][dK]G-{NHCH2C6H4(4-CH2CONH2)})
- Kd (IL-6R; MST, NNP2 library hit, target SIL-6R, one-site binding model): 1.2 nM

Compound: CC(C)C[C@H](NC(=O)[C@@H](CCCNC(=N)N)NC(=O)[C@@H](C)NC(=O)Cc1ccc(CNC(=O)[C@H](Cc2ccccc2)NC(=O)[C@@H](CCCNC(=N)N)NC(=O)[C@@H](CC(N)=O)NC(=O)Cc2ccc(CNC(=O)[C@H](Cc3ccccc3)NC(=O)[C@@H](CCCCN)NC(=O)[C@@H](C)NC(=O)Cc3ccc(CNC(=O)[C@H](CC(C)C)NC(=O)[C@@H](CCC(=O)O)NC(=O)[C@@H](CCCCN)NC(=O)Cc4ccc(CNC(=O)[C@@H](NC(=O)[C@@H](CCC(=O)O)NC(=O)[C@@H](Cc5ccccc5)NC(=O)Cc5ccc(CNC(=O)[C@H](CC(C)C)NC(=O)[C@@H](CCCNC(=N)N)NC(=O)[C@@H](CC(C)C)NC(=O)Cc6ccc(CNC(=O)[C@H](Cc7ccccc7)NC(=O)[C@@H](Cc7c[nH]c8ccccc78)NC(=O)[C@@H](CCCNC(=N)N)NC(=O)c7ccc8c(c7)C(=O)OC87c8ccc(O)cc8Oc8cc(O)ccc87)cc6)cc5)C(C)C)cc4)cc3)cc2)cc1)C(=O)NCc1ccc(CC(=O)N[C@H](Cc2c[nH]c3ccccc23)C(=O)N[C@H](CCCCN)C(=O)N[C@@H](CC(C)C)C(=O)NCc2ccc(CC(=O)N[C@H](C)C(=O)N[C@@H](C(=O)N[C@@H](CC(C)C)C(=O)NCc3ccc(CC(N)=O)cc3)C(C)C)cc2)cc1 [IL6R-87-10, Fluorescein-(D)Arg-(D)Trp-(L)Phe-PAM-(D)Leu-(D)Arg-(L)Leu-PAM-(D)Phe-(D)Glu-(L)Val-PAM-(D)Lys-(D)Glu-(L)Leu-PAM-(D)Ala-(D)Lys-(L)Phe-PAM-(D)Asn-(D)Arg-(L)Phe-PAM-(D)Ala-(D)Arg- (L)Leu-PAM-(D)Trp-(D)Lys-(L)Leu-PAM-(D)Ala-(D)Val-(L)Leu-PAM] (5FAM-[dR][dW]F[X1][dL][dR]L[X1][dF][dE]V[X1][dK][dE]L[X1][dA][dK]F[X1][dN][dR]F[X1][dA][dR]L[X1][dW][dK]L[X1][dA][dV]L-{NHCH2C6H4(4-CH2CONH2)})
- Kd (IL-6R; IL-6R, ester versus amide amino acid-PAM bond polymers, library NNP2): 20 nM

Compound: CC(C)C[C@H](NC(=O)[C@@H](CCCNC(=N)N)NC(=O)[C@@H](CC(C)C)NC(=O)Cc1ccc(CNC(=O)[C@H](CC(C)C)NC(=O)[C@H](NC(=O)[C@@H](CCCCN)NC(=O)c2ccc3c(c2)C(=O)OC32c3ccc(O)cc3Oc3cc(O)ccc32)C(C)C)cc1)C(=O)NCc1ccc(CC(=O)N[C@H](CCCNC(=N)N)C(=O)N[C@@H](C(=O)N[C@@H](CC(C)C)C(=O)NCc2ccc(CC(=O)N[C@H](Cc3ccccc3)C(=O)N[C@H](CCCNC(=N)N)C(=O)N[C@@H](C)C(=O)NCc3ccc(CC(=O)N[C@H](C)C(=O)N[C@H](CCCCN)C(=O)N[C@@H](Cc4ccccc4)C(=O)NCc4ccc(CC(=O)N[C@H](CC(N)=O)C(=O)N[C@H](CCCNC(=N)N)C(=O)N[C@@H](Cc5ccccc5)C(=O)NCc5ccc(CC(=O)N6CCC[C@@H]6C(=O)N[C@@H](C(=O)NCC(=O)NCc6ccc(CC(=O)N[C@H](CCC(=O)O)C(=O)N[C@H](CCCNC(=N)N)C(=O)N[C@H](C(=O)NCc7ccc(CC(=O)N[C@H](Cc8ccc(O)cc8)C(=O)N[C@H](CCCNC(=N)N)C(=O)N[C@@H](Cc8ccccc8)C(=O)NCc8ccc(CC(N)=O)cc8)cc7)C(C)C)cc6)C(C)C)cc5)cc4)cc3)cc2)C(C)C)cc1 [TNF-39-1] (5FAM-[dK][dV]L[X1][dL][dR]L[X1][dR][dV]L[X1][dF][dR]A[X1][dA][dK]F[X1][dN][dR]F[X1][dP][dV]G[X1][dE][dR]V[X1][dY][dR]F-{NHCH2C6H4(4-CH2CONH2)})
- Kd (TNFα): 116 nM
